Source: patent US20250090564A1, “BIOACTIVES AND THEIR USES” (AREPA IP LIMITED, priority 2022, published 2025)
Read-outs that look alike come from different tables or passages of the source.

Key:
MAO-A [1] = target: T1, MAO-A (Homo sapiens, UniProt P21397); test: MAO-Glo assay kit, MAO-A; type: biochemical; conditions: dose response curve, 1 h room temperature
T1 sequence (P21397 1-527): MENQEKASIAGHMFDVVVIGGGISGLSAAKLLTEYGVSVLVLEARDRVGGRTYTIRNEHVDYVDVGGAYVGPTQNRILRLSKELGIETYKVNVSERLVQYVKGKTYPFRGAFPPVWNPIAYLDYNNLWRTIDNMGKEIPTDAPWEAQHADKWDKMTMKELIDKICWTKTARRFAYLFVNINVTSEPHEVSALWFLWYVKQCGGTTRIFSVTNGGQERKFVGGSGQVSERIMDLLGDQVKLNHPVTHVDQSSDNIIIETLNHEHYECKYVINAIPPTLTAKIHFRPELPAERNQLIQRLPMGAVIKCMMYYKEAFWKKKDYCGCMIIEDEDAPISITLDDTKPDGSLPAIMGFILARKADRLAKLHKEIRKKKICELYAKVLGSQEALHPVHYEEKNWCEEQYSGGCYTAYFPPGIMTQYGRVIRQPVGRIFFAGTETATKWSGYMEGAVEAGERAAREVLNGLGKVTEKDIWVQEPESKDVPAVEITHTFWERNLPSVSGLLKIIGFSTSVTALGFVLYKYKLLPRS
Protocol: (§1) Synthetic sarmentosin (BOC Sciences; Cat. No. B2703-149954) was diluted in PBS for the MAO inhibition assays. […] Briefly, samples were combined with the kit's luminogenic MAO substrate solution and human enzyme (MAO-A or MAO-B at a final concentration of 20 μg/mL) and incubated at room temperature for 1 h. Following incubation, the luciferin detection reagent were added to each sample and the change in luminescence was measured at room temperature over 40 min in a FLUOstar Omega plate reader (BMG FluoStar Optima, Alphatech Systems, Auckland, New Zealand). […] All samples were analysed in triplicate on each plate.

human enzyme MAO-B = target: T2, human enzyme MAO-B (Homo sapiens, UniProt P27338); test: MAO-Glo assay kit, MAO-B; type: biochemical; conditions: highest concentration tested
T2 sequence (P27338 1-520): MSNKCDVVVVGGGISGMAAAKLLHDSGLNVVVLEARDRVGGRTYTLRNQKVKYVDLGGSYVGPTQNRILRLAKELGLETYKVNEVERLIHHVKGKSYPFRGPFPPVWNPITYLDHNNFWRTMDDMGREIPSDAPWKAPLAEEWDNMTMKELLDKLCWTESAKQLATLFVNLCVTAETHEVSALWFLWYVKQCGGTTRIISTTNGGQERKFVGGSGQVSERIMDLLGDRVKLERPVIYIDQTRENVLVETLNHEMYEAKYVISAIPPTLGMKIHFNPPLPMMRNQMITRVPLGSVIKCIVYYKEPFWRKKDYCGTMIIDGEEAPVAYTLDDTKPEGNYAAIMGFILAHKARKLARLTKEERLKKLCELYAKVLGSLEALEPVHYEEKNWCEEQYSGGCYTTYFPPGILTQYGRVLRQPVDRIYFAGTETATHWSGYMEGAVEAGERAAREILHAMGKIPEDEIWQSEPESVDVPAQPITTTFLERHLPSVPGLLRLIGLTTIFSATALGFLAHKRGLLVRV
Protocol: as §1

[2] = human, in vivo
Protocol: Plasma was separated from whole blood collected in lithium heparin tubes from participants by centrifugation at 4000×g for 10 min at 4° C. Plasma (1 mL) was spiked with 30 μL of 50% formic acid and 100 µL of 10 mmol ascorbic acid then stored at −80° C. prior to shipping on dry ice to the Physiological Chemistry laboratory.
The plasma samples (350 μL) were spiked with malvidin 3-O-galactoside and further acidified with phosphoric acid prior to clean up on a SOLAμ™ Solid Phase Extraction plate. Following washing with water and acetic acid, the retained anthocyanins were eluted with methanol: formic acid (95:5), evaporated to dryness then reconstituted in acetonitrile: formic acid: water (5:3:92) prior to analysis by Liquid Chromatography-Mass Spectrometry (LC-MS). Quantifications of individual and total anthocyanins were performed using the internal standard ratio method using MultiQuant software, and all results are reported as cyanidin 3-O-glucoside equivalents. Quantification of sarmentosin was performed using an external reference standard supplied by Stephen Bloor (Callaghan Institute).

[3] = In vitro digestion of blackcurrant juice concentrate (pepsin/acid, bile salts/pancreatin), LCMS; type: in vitro ADME
Protocol: Samples were taken at the end of 1st step and at 30 min intervals in the 2nd step to give 6 samples for analysis. The samples will be examined (LCMS) for the level of sarmentosin and sarmentosin esters and compared with the feed material. The two samples were treated as shown below in Table 17 to replicate digestion. [table] Samples taken from the subsequent treatments were stored frozen until required for analysis. The samples were all a similar volume and concentration of original juice. Analysis was performed using LCMS (method described in the earlier work). Samples were prepared in two ways, 1. addition of methanol to precipitate any protein or 2. Direct sampling of neat solution after centrifugation.

platelet MAO-B = target: T3, platelet MAO-B (Homo sapiens, UniProt P27338); test: Acute sarmentosin pilot study, platelet MAO-B activity (Example 10); type: in vivo; conditions: for platelet MAO-B activity compared with baseline (0 h): 2 h after consumption; for platelet MAO-B activity compared with baseline: 4 h after consumption
T3 construct: platelets were isolated from whole blood; from tissue; host or cells: platelets isolated from venous blood of human participants
T3 sequence (P27338 1-520): T2 sequence (P27338 1-520)
Protocol: To determine the efficacy of sarmentosin in temporally inhibiting platelet MAO-B activity, we conducted a randomized, placebo-controlled crossover study. Human participants completed three treatment conditions (placebo, 42 mg sarmentosin, and 84 mg sarmentosin), with each trial day separated by at least 48 h.
Five healthy male adults aged between 25 and 36 years old were enrolled in this study. Participants were randomly allocated one of the three trial treatment beverages. All participants completed all three treatment arms of the study, and data from all participants were included in the study analysis. Enrolled participants were required to take part in three trial days where they consumed their allocated sarmentosin beverages or the placebo. Participants adhered to the same dietary restrictions and consumed the same standardized breakfast as previously described in the intervention study. A venous blood sample was collected at the beginning of each trial day, and then, participants were given their treatment beverage to consume immediately. […] Water was provided ad libitum during the trial day, and participants were seated in the clinical trial facility between venous blood collection time points.
Blackcurrant juice previously confirmed to contain sarmentosin was diluted 1:1 with RO-purified H2O and slowly applied to a column (10 cm diameter×125 cm height) filled with Diaion HP20 resin (Mitsubishi Chemical Industries, Japan). The eluant was collected until it was determined that most of sarmentosin had eluted and was quantified as described previously. Sarmentosin fractions were combined and concentrated using a rotary evaporator, and the resulting sarmentosin-rich fraction was then sterile filtered (Millipore Stericup (0.22 μM), Sigma-Aldrich).
Participants consumed a 250 mL beverage containing 42 and 84 mg total sarmentosin, similar to that present in one and two servings, respectively, of a commercial BC juice (Arepa Performance). Sucrose, BC flavouring, and coloring were added to the beverages to blind for taste and appearance. The placebo beverage was matched for sucrose, contained the same volume of added BC flavouring and coloring produced by Sensient Technologies (Auckland, New Zealand) as the sarmentosin beverages, and diluted to 250 mL to match for sweetness, appearance, and flavor.

MAO-B = target: T4, MAO-B (Sus scrofa, UniProt Q6PLK3); test: S9 porcine liver microsome fraction assay, kynuramine to 4HQ by LCMS; conditions: qualitative statement
T4 sequence (Q6PLK3 2-520): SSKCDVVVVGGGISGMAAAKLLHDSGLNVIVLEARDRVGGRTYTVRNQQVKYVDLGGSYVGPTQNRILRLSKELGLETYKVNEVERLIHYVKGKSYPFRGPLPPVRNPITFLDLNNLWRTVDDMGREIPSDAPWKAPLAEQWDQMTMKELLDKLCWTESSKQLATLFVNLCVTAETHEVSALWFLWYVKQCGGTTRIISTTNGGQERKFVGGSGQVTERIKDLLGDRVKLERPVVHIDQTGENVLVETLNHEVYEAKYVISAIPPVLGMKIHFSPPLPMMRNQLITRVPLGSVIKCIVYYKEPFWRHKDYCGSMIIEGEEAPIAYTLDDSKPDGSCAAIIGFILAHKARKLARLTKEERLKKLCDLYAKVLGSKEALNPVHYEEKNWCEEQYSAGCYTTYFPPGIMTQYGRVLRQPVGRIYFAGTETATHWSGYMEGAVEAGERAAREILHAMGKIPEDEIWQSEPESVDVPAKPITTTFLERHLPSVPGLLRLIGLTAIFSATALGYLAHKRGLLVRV
Protocol: We used a porcine S9 liver microsome fraction as the source of the MAO-A and MAO-B enzymes.
The S9 porcine fraction was mixed with a specific MAO substrate (kynuramine) and mixed with the test sample and buffer. After 1 hr at 37° C. the reaction was halted by cooling and addition of 2N NaOH and acetonitrile. The centrifuged sample was then analysed using LCMS and the level of 4-quinolol (4HQ) product measured.
Samples were prepared in a 6-well plate (deep well format with 1.1 ml strip tubes). The assay was performed by diluting the crude S9 fraction with buffer (PBS, PH 7.4, diluted 1 in 5, 150 μl) and adding the test sample dissolved in buffer (75 ul). An aliquot of kynuramine was added (10 ul of 1 mg/ml) and the plate was placed in a 37 C water bath for 1 hr. The plate was cooled in ice water before addition of 20 ul 2N NaOH followed by 250 μl acetonitrile. The individual strip tubes were centrifuged, and samples taken from each for LCMS analysis.
The LCMS analysis was performed using a Cyano HPLC column eluted with 0.1% formic in water and acetonitrile. The LC run was isocratic mode (40% Acetonitrile) and the relative levels of 4 hydroxy quinoline (4HQ) and kynuramine determined from peak areas. […] Kynuramine is converted to 4HQ by the MAO-B enzyme.
Various juice samples, concentrates, powders and whole fruit were tested. […]

[4] = in vivo; cited from earlier work
MAO-A [5] = target: T1, MAO-A; parameters: purchased Sigma-Aldrich MAK295/296; conditions: reversible inhibitor; cited from earlier work
MAO-A and B = conditions: irreversible, non-selective inhibitor; cited from earlier work

For `N#C/C(=C\CO[C@@H]1O[C@H](CO)[C@@H](O)[C@H](O)[C@H]1O)CO` [sarmentosin, 4-(beta-D-glucopyranosyloxy)-2-(hydroxymethyl-2-butenenitrile)], the IC50 (MAO-A [1]) was 3.55 µM, the inhibition at 250 µM (human enzyme MAO-B) was 32% and the “time of peak concentrations of sarmentosin in plasma” value [2] was 120 min. The “concentration after in vitro digestion steps” value [3] was “increase”, the “effect of final heating step (90 C. for 10 min) after digestion” value [3] was “some degradation” and the “platelet MAO-B activity compared with baseline (0 h)” value (platelet MAO-B; 42 mg sarmentosin) was “similarly inhibited platelet MAO-B activity”. For the same molecule, the “platelet MAO-B activity compared with baseline” value (platelet MAO-B; 42 mg sarmentosin) was “MAO-B activity comparable to baseline”, the “platelet MAO-B activity compared with baseline (0 h)” value (platelet MAO-B; 84 mg sarmentosin) was “similarly inhibited platelet MAO-B activity” and the “platelet MAO-B activity compared with baseline” value (platelet MAO-B; 84 mg sarmentosin) was “MAO-B activity comparable to baseline”. For the same molecule, the “MAO inhibition activity in S9-LCMS bioassay (level of 4HQ)” value (MAO-B) was “the same activity”.

For `O=C(NCCN1CCOCC1)c1ccc(Cl)cc1` [Moclobemide], the “time to reach peak concentrations” value [4] is given as “approximately 1 hours”.

For `Cc1cccc(N2CC(CO)OC2=O)c1` (centres unmarked) [toloxatone], the “duration of MAO-A inhibition before activity returns to baseline” value (MAO-A [5]) is given as “six”.

For nigrumin-p-coumarate, the “concentration after in vitro digestion steps” value ([3]; esters: steps 3 through 5, sarmentosin: steps 3 and 4, FIGS. 32 and 33) was “decrease”.

For `NNCCc1ccccc1` [Phenelzine], the “duration of inhibition of MAO-A and B” value (MAO-A and B) is listed as “up to three”.
